Test results from PMC12084609, “Structural insights into small-molecule agonist recognition and activation of complement receptor C3aR” (The EMBO Journal, 2025).
Where a chain is given by its changes, count along the chain named. Where “and” joins values, the source holds several entries; their conditions need not be identical. Identical values can stand only once. Like-named read-outs stand apart in the source and are kept apart here.

What was measured:
Type in all cases: cell-based
C3aR Y393^6.51A = biological target: T1, C3aR Y393^6.51A (Homo sapiens, UniProt Q16581, Y393A); assay: GloSensor-based cAMP assay, C3aR mutant Y393A; settings: for cAMP response (% Forskolin): Y3936.51A
T1 construct: expressed in transfected cells; host or cells: HEK293T
T1 sequence (Q16581 1-482 Y393A): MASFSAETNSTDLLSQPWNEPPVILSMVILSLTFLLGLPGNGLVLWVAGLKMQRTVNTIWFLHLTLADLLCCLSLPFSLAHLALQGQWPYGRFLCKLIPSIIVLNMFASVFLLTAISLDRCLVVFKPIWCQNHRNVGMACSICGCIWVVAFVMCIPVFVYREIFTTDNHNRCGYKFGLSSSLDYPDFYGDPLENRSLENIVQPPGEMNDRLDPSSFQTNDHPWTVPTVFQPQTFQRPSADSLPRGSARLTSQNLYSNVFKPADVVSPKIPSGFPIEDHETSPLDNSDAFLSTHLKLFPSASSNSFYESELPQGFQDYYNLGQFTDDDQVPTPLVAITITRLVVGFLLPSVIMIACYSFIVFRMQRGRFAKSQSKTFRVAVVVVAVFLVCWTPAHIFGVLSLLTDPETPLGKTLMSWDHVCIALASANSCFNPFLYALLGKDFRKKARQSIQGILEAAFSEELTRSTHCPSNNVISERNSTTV
Experimental: (§1) HEK293T cells were seeded on 6-well plates (NEST) and transfected with pGlosensor™-22F plasmids (Promega) and pcDNA3.1 plasmids encoding C3aR or its mutants an with N-terminal FLAG tag. After 48 h, cells were detached with Accutase solution (Sigma-Aldrich) and washed with PBS, and resuspended in assay buffer (CO2-independent medium with 0.5 mg mL^−1D-luciferin). 100,000–200,000 cells were seeded on 96-well white bottom plates (SPL) and incubated at 37 °C for 45 min followed by 45 min incubation at room temperature. After 90 min of incubation, basal luminescence signals were recorded. In total, 25 μl of test ligand with various concentrations and 1 μM Forskolin (Sigma-Aldrich) were treated to the cells and luminescence signals were measured by Tristar 2 LB 942 multimode reader (Berthold). […] Relative luminescence unit (%) was calculated with the signal of wells treated with vehicle as 0% and the signal of wells treated with 1 μM Forskolin as 100% (DiRaddo et al, [2014]). Nonlinear regression was performed using a three-parameter logistic equation.

C3aR R161^ECL2A = biological target: T2, C3aR R161^ECL2A (Homo sapiens, UniProt Q16581, R161A); assay: GloSensor-based cAMP assay, C3aR mutant R161A; settings: for cAMP response (% Forskolin): R161ECL2A
T2 construct: expressed in transfected cells; host or cells: HEK293T
T2 sequence (Q16581 1-482 R161A): T1 sequence (Q16581 1-482 Y393A) with R161A, A393Y
Experimental: as §1

C3aR R340^5.42A = biological target: T3, C3aR R340^5.42A (Homo sapiens, UniProt Q16581, R340A); assay: GloSensor-based cAMP assay, C3aR mutant R340A; settings: for ΔpIC50 ± SE of Diff.: R340^5.42A relative to WT C3aR; for cAMP response (% Forskolin): R3405.42A
T3 construct: expressed in transfected cells; host or cells: HEK293T
T3 sequence (Q16581 1-482 R340A): T1 sequence (Q16581 1-482 Y393A) with R340A, A393Y
Experimental: as §1

[1] = Dunnett's multiple comparisons test, WT minus mutant
[2] = Log[C3a (M)] -7, single replicates
[3] = Log[C3a (M)] -8, single replicates
[4] = Log[C3a (M)] -9, single replicates
[5] = Log[C3a (M)] -10, single replicates
[6] = Log[C3a (M)] -11, single replicates
[7] = Log[C3a (M)] -12, single replicates

Cc1cc(C(c2ccc(Cl)cc2)c2ccc(Cl)cc2)sc1C(=O)N[C@@H](CCCNC(=N)N)C(=O)O [JR14a, reference compound]
IC50 (C3aR Y393^6.51A; IC50, Y393^6.51A, dose-response plot): 0.312 µM
remaining activity at 1 µM (C3aR Y393^6.51A; Y393A, Log[JR14a (M)] -6, single replicates, read-out: cAMP response (% Forskolin)): 21.8%
remaining activity at 0.1 µM (C3aR Y393^6.51A; Y393A, Log[JR14a (M)] -7, single replicates, read-out: cAMP response (% Forskolin)): 72.2%
remaining activity at 0.01 µM (C3aR Y393^6.51A; Y393A, Log[JR14a (M)] -8, single replicates, read-out: cAMP response (% Forskolin)): 96.3%
remaining activity at 0.0001 µM (C3aR Y393^6.51A; Y393A, Log[JR14a (M)] -10, single replicates, read-out: cAMP response (% Forskolin)): 94.3%
remaining activity at 10 pM (C3aR Y393^6.51A; Y393A, Log[JR14a (M)] -11, single replicates, read-out: cAMP response (% Forskolin)): 93.5%
IC50 (C3aR Y393^6.51A; pIC50 (Replicate), Y393^6.51A, individual replicates): 0.309 µM and 0.398 µM and 0.263 µM
IC50 (C3aR Y393^6.51A; pIC50 ± SEM (Mean), Y393^6.51A, mean of independent experiments): 0.316 µM
Mean Diff. of pIC50, WT vs. R161A (C3aR R161^ECL2A; [1]): -0.085
IC50 (C3aR R161^ECL2A; IC50, R161^ECL2A, dose-response plot, Not calculated = entire loss of signaling): 0.00228 µM
remaining activity at 1 µM (C3aR R161^ECL2A; R161A, Log[JR14a (M)] -6, single replicates, read-out: cAMP response (% Forskolin)): 11.8%
remaining activity at 0.1 µM (C3aR R161^ECL2A; R161A, Log[JR14a (M)] -7, single replicates, read-out: cAMP response (% Forskolin)): 13.6%
remaining activity at 0.01 µM (C3aR R161^ECL2A; R161A, Log[JR14a (M)] -8, single replicates, read-out: cAMP response (% Forskolin)): 41.3%
remaining activity at 0.001 µM (C3aR R161^ECL2A; R161A, Log[JR14a (M)] -9, single replicates, read-out: cAMP response (% Forskolin)): 79.3%
remaining activity at 0.0001 µM (C3aR R161^ECL2A; R161A, Log[JR14a (M)] -10, single replicates, read-out: cAMP response (% Forskolin)): 99.1%
remaining activity at 10 pM (C3aR R161^ECL2A; R161A, Log[JR14a (M)] -11, single replicates, read-out: cAMP response (% Forskolin)): 108%
ΔpIC50 ± SE of Diff. (C3aR R161^ECL2A; R161^ECL2A relative to WT C3aR): 0.09 ± 0.04
decrease in IC50 values vs WT (C3aR R161^ECL2A; R161^ECL2 to Ala, relatively mild effect on downstream signaling): < 10 fold
IC50 (C3aR R161^ECL2A; pIC50 (Replicate), R161^ECL2A, individual replicates): 0.00372 µM and 0.00186 µM and 0.00174 µM
Mean Diff. of pIC50, WT vs. R340A (C3aR R340^5.42A; [1]): 2.282
IC50 (C3aR R340^5.42A; IC50, R340^5.42A, dose-response plot): 0.478 µM
remaining activity at 1 µM (C3aR R340^5.42A; R340A, Log[JR14a (M)] -6, single replicates, read-out: cAMP response (% Forskolin)): 78.9%
remaining activity at 0.1 µM (C3aR R340^5.42A; R340A, Log[JR14a (M)] -7, single replicates, read-out: cAMP response (% Forskolin)): 99.9%
remaining activity at 0.0001 µM (C3aR R340^5.42A; R340A, Log[JR14a (M)] -10, single replicates, read-out: cAMP response (% Forskolin)): 105%
remaining activity at 10 pM (C3aR R340^5.42A; R340A, Log[JR14a (M)] -11, single replicates, read-out: cAMP response (% Forskolin)): 104%
ΔpIC50 ± SE of Diff. (C3aR R340^5.42A): -2.28 ± 0.14
IC50 (C3aR R340^5.42A; pIC50 ± SEM (Mean), R340^5.42A, mean of independent experiments): 0.537 µM

C3a: anaphylatoxin C3a, natural peptide ligand of C3aR (a 77-amino acid peptide), Sigma-Aldrich
ΔpIC50 ± SE of Diff. (C3aR Y393^6.51A; Y393^6.51A relative to WT C3aR): -1.34 ± 0.2
IC50 (C3aR Y393^6.51A; Y393^6.51A, dose-response plot, read-out: IC50): 0.0353 µM
pIC50 ± SEM (Mean) (C3aR Y393^6.51A; Y393^6.51A, mean of independent experiments): 7.26
cAMP response (% Forskolin) (C3aR Y393^6.51A; [2]): 22.11 % Forskolin and 35.95 % Forskolin and 17.03 % Forskolin and 39.16 % Forskolin and 16.00 % Forskolin and 10.74 % Forskolin
cAMP response (% Forskolin) (C3aR Y393^6.51A; [3]): 77.53 % Forskolin and 92.37 % Forskolin and 48.78 % Forskolin and 85.94 % Forskolin and 83.42 % Forskolin and 59.04 % Forskolin
cAMP response (% Forskolin) (C3aR Y393^6.51A; [4]): 100.98 % Forskolin and 105.20 % Forskolin and 100.01 % Forskolin and 92.90 % Forskolin and 94.02 % Forskolin and 86.75 % Forskolin
cAMP response (% Forskolin) (C3aR Y393^6.51A; [5]): 91.84 % Forskolin and 102.66 % Forskolin and 96.87 % Forskolin and 100.10 % Forskolin and 89.56 % Forskolin and 88.42 % Forskolin
cAMP response (% Forskolin) (C3aR Y393^6.51A; [6]): 102.78 % Forskolin and 104.06 % Forskolin and 100.84 % Forskolin and 95.25 % Forskolin and 103.11 % Forskolin and 88.56 % Forskolin
cAMP response (% Forskolin) (C3aR Y393^6.51A; [7]): 99.54 % Forskolin and 99.47 % Forskolin and 94.11 % Forskolin and 90.18 % Forskolin and 94.48 % Forskolin and 86.37 % Forskolin
cAMP response (% Forskolin) (C3aR R161^ECL2A; [2]): 95.22 % Forskolin and 113.23 % Forskolin and 84.95 % Forskolin
cAMP response (% Forskolin) (C3aR R161^ECL2A; [3]): 93.59 % Forskolin and 100.34 % Forskolin and 90.06 % Forskolin
cAMP response (% Forskolin) (C3aR R161^ECL2A; [4]): 101.94 % Forskolin and 107.61 % Forskolin and 95.04 % Forskolin
cAMP response (% Forskolin) (C3aR R161^ECL2A; [5]): 94.48 % Forskolin and 102.25 % Forskolin and 94.73 % Forskolin
cAMP response (% Forskolin) (C3aR R161^ECL2A; [6]): 103.03 % Forskolin and 121.75 % Forskolin and 96.66 % Forskolin
cAMP response (% Forskolin) (C3aR R161^ECL2A; [7]): 95.52 % Forskolin and 105.32 % Forskolin and 102.35 % Forskolin
ΔpIC50 ± SE of Diff. (C3aR R340^5.42A): -1.39 ± 0.06
IC50 (C3aR R340^5.42A; R340^5.42A, dose-response plot, read-out: IC50): 0.047 µM
pIC50 (Replicate) (C3aR R340^5.42A; R340^5.42A, individual replicates): 7.31 and 7.68 and 7.02 and 6.95
pIC50 ± SEM (Mean) (C3aR R340^5.42A; R340^5.42A, mean of independent experiments): 7.21
cAMP response (% Forskolin) (C3aR R340^5.42A; [2]): 25.35 % Forskolin and 26.64 % Forskolin and 21.46 % Forskolin and 37.94 % Forskolin and 13.15 % Forskolin and 37.80 % Forskolin
cAMP response (% Forskolin) (C3aR R340^5.42A; [3]): 77.37 % Forskolin and 75.03 % Forskolin and 71.05 % Forskolin and 86.28 % Forskolin and 86.11 % Forskolin and 85.37 % Forskolin
cAMP response (% Forskolin) (C3aR R340^5.42A; [4]): 91.29 % Forskolin and 112.12 % Forskolin and 107.73 % Forskolin and 93.95 % Forskolin and 109.05 % Forskolin and 100.87 % Forskolin
cAMP response (% Forskolin) (C3aR R340^5.42A; [5]): 92.00 % Forskolin and 91.42 % Forskolin and 98.18 % Forskolin and 91.19 % Forskolin and 108.32 % Forskolin and 87.99 % Forskolin
cAMP response (% Forskolin) (C3aR R340^5.42A; [6]): 98.26 % Forskolin and 112.91 % Forskolin and 108.63 % Forskolin and 92.51 % Forskolin and 96.75 % Forskolin and 86.60 % Forskolin
cAMP response (% Forskolin) (C3aR R340^5.42A; [7]): 94.72 % Forskolin and 95.53 % Forskolin and 102.57 % Forskolin and 99.30 % Forskolin and 100.29 % Forskolin and 108.61 % Forskolin
